“Also recorded” adds a separate entry of the source. No end group written: not given here.
How the values were obtained:
LGR5 = target: T1, LGR5 (Homo sapiens, UniProt O75473); experiment: cAMP accumulation in CHO-K1 cells transiently transfected with LGR5; format: cell-based; settings: 1 uM, pre-treatment with Forskolin, FIG. 3B
T1 construct: expressed in transfected cells; host or cells: CHO-K1 (transient)
T1 sequence (O75473 22-907): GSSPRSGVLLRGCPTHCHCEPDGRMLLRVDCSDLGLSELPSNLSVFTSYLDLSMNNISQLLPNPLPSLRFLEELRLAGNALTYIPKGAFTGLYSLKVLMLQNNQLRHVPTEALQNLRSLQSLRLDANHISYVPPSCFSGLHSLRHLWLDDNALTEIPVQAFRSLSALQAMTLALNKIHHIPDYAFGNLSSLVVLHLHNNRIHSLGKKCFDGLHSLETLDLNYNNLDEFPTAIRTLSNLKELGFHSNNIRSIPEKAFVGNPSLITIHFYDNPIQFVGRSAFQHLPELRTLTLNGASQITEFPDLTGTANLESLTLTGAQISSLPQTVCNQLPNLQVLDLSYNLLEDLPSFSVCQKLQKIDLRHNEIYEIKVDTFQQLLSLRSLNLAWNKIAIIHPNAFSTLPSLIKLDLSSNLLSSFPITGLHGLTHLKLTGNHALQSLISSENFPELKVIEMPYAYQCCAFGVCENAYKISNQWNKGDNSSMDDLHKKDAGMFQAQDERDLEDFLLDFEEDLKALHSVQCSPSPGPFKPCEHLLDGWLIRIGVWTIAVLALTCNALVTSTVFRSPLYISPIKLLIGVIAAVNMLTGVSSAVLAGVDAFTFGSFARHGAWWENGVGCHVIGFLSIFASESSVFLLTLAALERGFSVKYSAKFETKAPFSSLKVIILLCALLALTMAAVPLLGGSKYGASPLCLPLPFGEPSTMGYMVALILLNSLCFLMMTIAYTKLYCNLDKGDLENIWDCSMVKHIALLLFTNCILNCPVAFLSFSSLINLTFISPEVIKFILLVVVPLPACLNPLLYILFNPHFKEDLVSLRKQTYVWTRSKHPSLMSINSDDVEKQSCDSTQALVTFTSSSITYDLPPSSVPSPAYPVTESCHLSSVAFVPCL
Experimental: [The procedure below names another target; the source says it served here with some conditions changed.] LGR7 (RXFP1) or LGR8 (RXFP2) were transiently transfected into CHO-K1 cells as follows: Cells (12 million) were plated into T75 flasks on the day preceding transfection. Cells were transfected with a GPCR DNA and Gα16 using a lipid technique according to the manufacturer's recommendation. Cells were transfected for 5 hours, then re-plated into 96-well dishes (60,000 cells per well) and grown overnight. Transfected cells were plated into 24 wells of a 96-well plate. Cells were pre-treated with 0.5 mM IBMX (stimulation buffer) for 10 min at 37° C., then stimulated with either a positive control (Relaxin 2) or a candidate peptide (for Gs functional examination), followed by stimulation or a preincubation with 10 μM forskolin (for Gi functional examination). Following a 20 minutes stimulation by incubation with 1 μM of either positive control or the tested peptides, either with or without forskolin, intracellular cAMP was assayed using the Hit Hunter cAMP kit (DiscoveRx Corporation) according to the manufacturer's recommended protocol. Data was converted to nmol of cAMP by running a standard cAMP curve.

[1] = system: untransfected CHO-K1 cells; experiment: ACEA RT-CES cell impedance, untransfected CHO-K1 cells; format: cell-based; settings: for effect on cell impedance (normalized cell index): P74C13V 10 uM, H2 Relaxin 1 uM, FIG. 11; for dose response activation (cell impedance): data not shown
From the text: ACEA RT-CES screen is a noninvasive and label-free assay for GPCRs that can be used with both engineered and nonengineered cell lines. The assay is based on using cell-electrode impedance to measure minute changes in cellular morphology as a result of ligand-dependent GPCR activation and is described in Naichen Yu, et al., Anal. Chem., 78 (1), 35-43, 2006. 10.1021/ac051695v S0003-2700(05)01695-1. The Rho family of small GTPases, which include Rho, Rac, and CDC42, are well-characterized effectors of oncogenes, growth factor and adhesion-mediated signaling pathways and are not classically thought of as being key effectors for GPCRs. Rho family GTPases participate in a number of cellular processes, the main one being regulation and maintenance of specific structures within the actin cytoskeleton framework. […] The current view of the actin cytoskeleton is that of a dynamic and plastic system that is a reflection and manifestation of the intracellular signaling and not simply a static structure designed to maintain cellular architecture. Since GPCRs couple to the actin cytoskeletal network and induce very defined morphological changes, it is possible to harness this information as a functional and biologically relevant readout for GPCRs.
ACEA biosciences; has designed electronic cell sensor arrays embedded in the bottom of the well of microtiter plates that are capable of measuring minute changes in cell morphology. The electronic sensors measure changes in cell-substrate impedance as a result of the disruption of the ionic environment due to the presence of cell and cell morphology dynamics. The main advantages offered by using cell-substrate impedance and cell morphology as a readout are that both exogenously expressed and endogenous receptors can be assayed without the need for engineering the cell with promiscuous G proteins and reporters or labeling the cells with dyes. In addition, since the readout is noninvasive, multiple stimulations with the same ligand or different ligands can be performed to assess events such as desensitization and receptor cross-talk. Finally, another major aspect of using cell-substrate impedance and cell morphology as a readout is that potentially all GPCRs, regardless of the signaling pathways, can be functionally monitored.
Peptides were synthesized by the solid phase peptide synthesis (SPPS) method, cleaved from the resin, and purified by RP-HPLC unless stated otherwise. […] Final purity of peptide was >90% as measured by RP-HPLC. […]
Before the transfected cells were seeded, […] SFM F12-HAM medium were added to each well of the E-plates and background levels were recorded.
Total cell number was calculated and cells were re-suspended in complete growth medium to cell concentration ranging from 0.3125×10^6/mL up to 0.4375×10^6/mL. […]

| Substance | Gi effect (decrease in cAMP accumulation) (LGR5) | effect on cell impedance (normalized cell index) [1] | dose response activation (cell impedance) [1] |
| --- | --- | --- | --- |
| GQKGQVGPPGAAVRRAYAAFSV [Peptide P59C13V] | significant Gi effect; also recorded: slight Gi activation |  |  |
| GQKGQVGPPGAAVRRAYAAFSVGRRAYAAFSV-OH [Peptide P74C13V] | significant Gi effect; also recorded: slight Gi activation | moderate effect | no dose dependent activation but only a moderate activation of the highest concentrations |
| H2 Relaxin: H2 Relaxin (ACS), positive control, known ligand of LGR7 (RXFP1) [reference compound] |  | moderate effect | no dose dependent activation but only a moderate activation of the highest concentrations |

Reference: patent US8492329B2, “Bioactive peptides and methods of using same” (Compugen Ltd., priority 2007, dated 2013)
